Toxic doses and inconclusive results are not listed. Cut-off read from the data, not from the text of the source: active = T/C of 150% or more; inactive = T/C below 125%.
Test system: L1210 leukemia ip in BDF1 mice, survival T/C
Assay: NCI In Vivo Anticancer Drug Screen. Data for tumor model L1210 Leukemia (intraperitoneal) in B6D2F1 (BDF1) mice
Conditions: endpoint: mean survival time, higher = longer survival
Summary of the method: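 Read-out is survival time, reported as the treated-group measurement over the vehicle-control measurement.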

[1] = dose: 100.0 mg/kg/injection, schedule: Q01DX009 (ip), vehicle: Klucel (hydroxypropylcellulose) (HPC)
[2] = dose: 100.0 mg/kg/injection, schedule: Q04DX002 (ip), vehicle: Klucel (hydroxypropylcellulose) (HPC)
[3] = dose: 100.0 mg/kg/injection, schedule: Q04DX003 (ip), vehicle: saline with Tween-80
[4] = dose: 200.0 mg/kg/injection, schedule: Q01DX009 (ip), vehicle: Klucel (hydroxypropylcellulose) (HPC)
[5] = dose: 200.0 mg/kg/injection, schedule: Q04DX002 (ip), vehicle: Klucel (hydroxypropylcellulose) (HPC)
[6] = dose: 200.0 mg/kg/injection, schedule: Q04DX003 (ip), vehicle: saline with Tween-80
[7] = dose: 400.0 mg/kg/injection, schedule: Q04DX002 (ip), vehicle: Klucel (hydroxypropylcellulose) (HPC)
[8] = dose: 400.0 mg/kg/injection, schedule: Q04DX003 (ip), vehicle: saline with Tween-80
[9] = dose: 100.0 mg/kg/injection, schedule: Q01DX001 (ip), vehicle: carboxymethylcellulose (CMC)
[10] = dose: 200.0 mg/kg/injection, schedule: Q01DX001 (ip), vehicle: carboxymethylcellulose (CMC)
[11] = dose: 400.0 mg/kg/injection, schedule: Q01DX001 (ip), vehicle: carboxymethylcellulose (CMC)
[12] = dose: 100.0 mg/kg/injection, schedule: Q01DX009 (ip), vehicle: saline
[13] = dose: 100.0 mg/kg/injection, schedule: Q04DX003 (ip), vehicle: saline
[14] = dose: 200.0 mg/kg/injection, schedule: Q01DX009 (ip), vehicle: saline
[15] = dose: 200.0 mg/kg/injection, schedule: Q04DX003 (ip), vehicle: saline
[16] = dose: 400.0 mg/kg/injection, schedule: Q01DX009 (ip), vehicle: saline
[17] = dose: 400.0 mg/kg/injection, schedule: Q04DX003 (ip), vehicle: saline
[18] = dose: 25.0 mg/kg/injection, schedule: Q01DX009 (ip), vehicle: saline
[19] = dose: 25.0 mg/kg/injection, schedule: Q04DX003 (ip), vehicle: saline
[20] = dose: 50.0 mg/kg/injection, schedule: Q01DX001 (ip), vehicle: saline
[21] = dose: 400.0 mg/kg/injection, schedule: Q01DX009 (ip), vehicle: Klucel (hydroxypropylcellulose) (HPC)
[22] = dose: 100.0 mg/kg/injection, schedule: Q04DX003 (ip), vehicle: Klucel (hydroxypropylcellulose) (HPC)
[23] = dose: 200.0 mg/kg/injection, schedule: Q04DX003 (ip), vehicle: Klucel (hydroxypropylcellulose) (HPC)
[24] = dose: 400.0 mg/kg/injection, schedule: Q04DX003 (ip), vehicle: Klucel (hydroxypropylcellulose) (HPC)

Measured: T/C

CCCCCCCCCCCCNC(C)=O
inactive: dose: 100.0 mg/kg/injection, schedule: Q01DX005 (ip), vehicle: Klucel (hydroxypropylcellulose) (HPC) 97 % of control | [1] 105 % of control | [2] 98 % of control | [3] 97 % of control | dose: 200.0 mg/kg/injection, schedule: Q01DX005 (ip), vehicle: Klucel (hydroxypropylcellulose) (HPC) 94 % of control | [4] 99 % of control | [5] 91 % of control | [6] 98 % of control | dose: 400.0 mg/kg/injection, schedule: Q01DX005 (ip), vehicle: Klucel (hydroxypropylcellulose) (HPC) 102 % of control | [7] 106 % of control | [8] 90 % of control

CC1=NNC(=O)C1Br (stereo not given)
inactive: [9] 105 % of control | [10] 102 % of control | [11] 100 % of control

Cc1ccc(S(=O)(=O)N2CCCC(O)c3ccccc32)cc1 (stereo not given)
inactive: [9] 108 % of control | [10] 106 % of control | [11] 116 % of control

OC1CCCSC1 (stereo not given)
inactive: [12] 102 % of control | [13] 96 % of control | [14] 98 % of control | [15] 100 % of control | [16] 98 % of control | [17] 89 % of control

CCC1(c2ccccc2)CN(C)C1=O (stereo not given)
inactive: [18] 103 % of control | [19] 92 % of control | dose: 50.0 mg/kg/injection, schedule: Q01DX009 (ip), vehicle: saline 106 % of control | dose: 50.0 mg/kg/injection, schedule: Q04DX003 (ip), vehicle: saline 97 % of control | [12] 105 % of control | [13] 97 % of control | [14] 102 % of control | [15] 95 % of control | [16] 100 % of control | [17] 92 % of control

CN=[N+]([O-])C1(OC(C)=O)CCCC1
inactive: dose: 6.25 mg/kg/injection, schedule: Q01DX001 (ip), vehicle: saline 117 % of control | dose: 12.5 mg/kg/injection, schedule: Q01DX001 (ip), vehicle: saline 110 % of control | dose: 25.0 mg/kg/injection, schedule: Q01DX001 (ip), vehicle: saline 117 % of control | [20] 113 % of control

O=C(O)C12C3CCC(O3)C1(C(=O)O)C1CCC2O1 (stereo not given)
inactive: [2] 104 % of control | [5] 104 % of control | [7] 104 % of control

Clc1ccc2nc(-c3ccc(Cl)c(Cl)c3)cc(-c3ccccc3)c2c1
inactive: [1] 94 % of control | [4] 86 % of control | [21] 97 % of control

Cc1c(C)c2c(Cl)c3ccccc3nc2c2ccccc12
inactive: dose: 50.0 mg/kg/injection, schedule: Q04DX003 (ip), vehicle: Klucel (hydroxypropylcellulose) (HPC) 102 % of control | [22] 100 % of control | [23] 112 % of control | [24] 100 % of control

CN(N=O)c1ccccc1
inactive: [20] 93 % of control | dose: 100.0 mg/kg/injection, schedule: Q01DX001 (ip), vehicle: saline 93 % of control | dose: 200.0 mg/kg/injection, schedule: Q01DX001 (ip), vehicle: saline 98 % of control | dose: 400.0 mg/kg/injection, schedule: Q01DX001 (ip), vehicle: saline 102 % of control

[O-][N+](=Nc1ccc2c(c1)Cc1ccccc1-2)c1ccc2c(c1)Cc1ccccc1-2
inactive: [3] 96 % of control | [6] 92 % of control | [8] 91 % of control

CCCCOC(=O)NC/C(Br)=C/Br
inactive: [1] 96 % of control | [22] 100 % of control | [4] 94 % of control | [23] 96 % of control | [21] 91 % of control | [24] 105 % of control

CCOC(=O)NP(=O)(Nc1ccccc1)Nc1ccccc1
inactive: dose: 50.0 mg/kg/injection, schedule: Q01DX001 (ip), vehicle: alcohol 104 % of control | dose: 100.0 mg/kg/injection, schedule: Q01DX001 (ip), vehicle: alcohol 98 % of control | dose: 200.0 mg/kg/injection, schedule: Q01DX001 (ip), vehicle: alcohol 102 % of control | dose: 400.0 mg/kg/injection, schedule: Q01DX001 (ip), vehicle: alcohol 104 % of control

O=C(Cn1ccc(=O)[nH]c1=O)Nc1nccs1
inactive: dose: 6.25 mg/kg/injection, schedule: Q01DX009 (ip), vehicle: saline 102 % of control | dose: 12.5 mg/kg/injection, schedule: Q01DX009 (ip), vehicle: saline 104 % of control | dose: 12.5 mg/kg/injection, schedule: Q04DX003 (ip), vehicle: saline 122 % of control | [18] 103 % of control | [19] 95 % of control

O=CNNc1ccccc1
inactive: dose: 75.0 mg/kg/injection, schedule: Q01DX001 (ip), vehicle: acetone 98 % of control | [22] 106 % of control | dose: 150.0 mg/kg/injection, schedule: Q01DX001 (ip), vehicle: acetone 100 % of control | [23] 95 % of control | dose: 300.0 mg/kg/injection, schedule: Q01DX001 (ip), vehicle: acetone 96 % of control

COC(=O)C(C)NC(=O)CNC(=O)OCc1ccccc1 (stereo not given)
inactive: dose: 100.0 mg/kg/injection, schedule: Q01DX009 (ip), vehicle: saline with Tween-80 97 % of control | dose: 200.0 mg/kg/injection, schedule: Q01DX009 (ip), vehicle: saline with Tween-80 102 % of control | dose: 400.0 mg/kg/injection, schedule: Q01DX009 (ip), vehicle: saline with Tween-80 92 % of control

O=[N+]([O-])c1ccc(-c2cccc(Cl)c2)c([N+](=O)[O-])c1
inactive: [9] 91 % of control | [10] 91 % of control | [11] 95 % of control
